Measurements: patent publication US20100256357A1, “HETEROCYCLES USEFUL AS INHIBITORS OF CARBONIC ANHYDRASE” (Agouron Pharmaceuticals, Inc., priority 2006, published 2010)
Where two headings read alike, the source gives them in different places. Blank lines part the entries; values can stand above or below the compound they belong to.

Tests used:
human CA-IX = molecular target: T1, human CA-IX (Homo sapiens, UniProt Q16790); test: Carbonic Anhydrase-IX (CA-IX) Fluorescence Polarization Assay-IC50 Determination; assay type: binding; conditions: read-out: CAIX IC50
T1 construct: purchased R&D Systems Inc. 2188-CA-010
Method: Carbonic Anhydrase-IX (CA-IX) Fluorescence Polarization Assay-IC50 Determination
Compounds were diluted in DMSO at the concentration of 1 mM, then 50 μM and transferred to a 96-well plate for further dilutions (1:3 dilution, 11 points) in duplicate. Final compound highest concentration in CA-IX FP assay is 1 μM. Assays were conducted in a final volume of 100 μL in 50 mM Tris/HCl (pH 7.6), 100 mM Na2SO4 and 0.005% Tween-20 in a 96-well black assay. plate. […] was used as the tracer. Binding inhibition was determined by pipetting 8 μL of human CA-IX (8 nM, R&D Systems Inc. Cat#2188-CA-010) into assay plate contained 2 μL of compound and 2 μL of tracer (2 nM) in 88 μL of assay buffer. The assay plate was incubated at room temperature for 30 minutes and read in the fluorescence polarization reader (Molecular Devices, Analyst) at 524/45 nm (excitation), 595/60 nm (emission) and 561 nm (bean splitter). […] GraphPad Prism or similar in-house software with the IC50 curve fitting using the four parameter logistic equation.

human CA-XII = molecular target: T2, human CA-XII (Homo sapiens, UniProt O43570); test: Carbonic Anhydrase-XII (CA-XII) Fluorimetric Assay-IC50 Determination; assay type: biochemical; conditions: for inhibition at 1 µM: read-out: % inh CAXII @ 1 uM; for IC50: read-out: CAXII IC 50
T2 construct: made in house; host or cells: Escherichia coli AD494 (DE3)
T2 sequence (O43570 30-289 limits assumed): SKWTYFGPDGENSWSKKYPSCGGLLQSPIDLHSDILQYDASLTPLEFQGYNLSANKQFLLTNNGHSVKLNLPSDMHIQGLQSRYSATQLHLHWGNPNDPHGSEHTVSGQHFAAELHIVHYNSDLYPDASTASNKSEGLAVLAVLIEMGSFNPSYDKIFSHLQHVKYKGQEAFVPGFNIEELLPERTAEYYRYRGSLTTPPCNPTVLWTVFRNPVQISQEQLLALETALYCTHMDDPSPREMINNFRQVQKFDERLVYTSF
Method: Carbonic Anhydrase-XII (CA-XII) Fluorimetric Assay-IC50 Determination
The cells were grown in LB (Biomyx) supplemented with 800 uM ZnCl2 at 37° C. until an O.D.600 of 0.7, at which point the cells were induced with 100 uM IPTG for 20 hours at 20° C. The frozen pellet was resuspended in 50 mM MES pH 6.0, 100 mM NaCl, 800 uM ZnCl2 and EDTA-Free protease inhibitors (Roche). The cells were lysed with a microfluidizer and the lysate was spun at 40,000 rpm for 45 minutes at 4° C. The soluble fraction was then put over a 100 ml SP-Sepharose High Performance (GE Healthcare) column and eluted with a 50 mM MES pH 6.0, 750 mM NaCl gradient.
Compounds were diluted in DMSO at the concentration of 1 mM, then 50 μM and transferred to a 96-well plate for further dilutions (1:3 dilution, 11 points) in duplicate. Final compound highest concentration in CA-XII Fluorimetric assay is 1 μM. Assays were conducted in a final volume of 100 μL in 50 mM Tris/HCl (pH 7.6), 100 mM Na2SO4 and 0.005% Tween-20 in a 96-well black assay plate. Fluorescein diacetate was used as the substrate. Enzyme inhibition was determined by pipetting 8 μL of human CA-XII (50 nM) into assay plate contained 2 μL of compound and 2 μL of substrate (10 μM) in 88 μL of assay buffer.

human CA-IV = molecular target: T3, human CA-IV (Homo sapiens, UniProt P22748); test: Carbonic Anhydrase-IV (CA-IV) Fluorescence Polarization Assay-IC50 Determination; assay type: binding; conditions: for inhibition at 0.2 µM: read-out: CA-IV: % Inh @ Min dose
T3 construct: made in house; host or cells: Escherichia coli BL21(DE3)
T3 sequence (P22748 19-284 limits assumed): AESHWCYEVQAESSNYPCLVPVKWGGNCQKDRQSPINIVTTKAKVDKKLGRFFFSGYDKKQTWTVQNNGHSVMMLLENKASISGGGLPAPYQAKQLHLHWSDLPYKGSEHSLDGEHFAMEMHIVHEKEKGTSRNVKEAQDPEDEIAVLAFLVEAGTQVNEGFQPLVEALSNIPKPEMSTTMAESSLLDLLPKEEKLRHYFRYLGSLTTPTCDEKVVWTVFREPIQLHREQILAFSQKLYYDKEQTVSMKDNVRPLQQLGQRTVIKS
Summary of the method: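 IC50 values come from a fluorescence polarization read-out. The CA-IV protein was zinc-supplemented during expression and purified by cation exchange then gel filtration, ending in 25 mM Tris-HCl pH 7.0 with 100 mM NaCl at 7.0 mg/mL.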

human CA-II [1] = molecular target: T4, human CA-II (Homo sapiens, UniProt P00918); test: Carbonic Anhydrase-II (CA-II) Fluorimetric Assay-IC50 Determination; assay type: biochemical; conditions: for inhibition at 0.1 µM: CA II Min dose 100 nM; for inhibition at 0.1 µM / inhibition at 0.0025 µM: read-out: CAII % Inh @ Min dose; for inhibition at 0.0025 µM: Min dose 2.5 nM
T4 construct: purchased Sigma-Aldrich C6165
Summary of the method: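 Enzyme activity is read fluorimetrically at 25° C (ex 488 nm / em 538 nm) as the rate at which human CA-II hydrolyses fluorescein diacetate. The buffer is Tris/HCl (50 mM, pH 7.6) with 100 mM Na2SO4 and 0.005% Tween-20. Inhibitors run in duplicate over 11 threefold dilutions, […]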

human CA-II [2] = molecular target: T4, human CA-II; test: Carbonic Anhydrase-II (CA-II) Fluorescence Polarization Tight Binding Assay-Kd Determination; conditions: read-out: CA-II Kd
Method: Assays were conducted in a final volume of 100 μL in 50 mM Tris/HCl (pH 7.6), 100 mM Na2SO4 and 0.005% Tween-20 in a 96-well black assay plate. […] The assay plate was
The Kd binding was calculated using GraphPad Prism and Morrison tight binding ligand equation.

Compound: CCCCN(C)C(=O)c1nc(Cc2ccccc2)n(-c2ccc(S(N)(=O)=O)cc2F)n1
IC50 (human CA-IX): 2.79 nM

Compound: CN(CCc1ccccc1)C(=O)c1nc(Cc2ccccc2)n(-c2ccc(S(N)(=O)=O)cc2F)n1 [Example A-1d, 1-[4-(aminosulfonyl)-2-fluorophenyl]-5-benzyl-N-methyl-N-(2-phenylethyl)-1H-1,2,4-triazole-3-carboxamide]
IC50 (human CA-IX): 2.94 nM

Compound: C[C@@H]1CN(Cc2nc(Cc3ccccc3)n(-c3ccc(S(N)(=O)=O)cc3F)n2)C[C@H](C)O1 [Example F-1, 4-(5-Benzyl-3-{[2,6-cis-dimethylmorpholin-4-yl]methyl}-1H-1,2,4-triazol-1-yl)-3-fluorobenzenesulfonamide]
IC50 (human CA-IX): 26.1 nM

Compound: CCCN(C)Cc1nc(Cc2cccc(C)c2)n(-c2ccc(S(N)(=O)=O)cc2F)n1 [Example F-1aj, 3-fluoro-4-[5-(3-methylbenzyl)-3-{[methyl(propyl)amino]methyl}-1H-1,2,4-triazol-1-yl]benzenesulfonamide]
IC50 (human CA-IX): 4.32 nM

Compound: Cc1cccc(Cc2nc(CN(C)C3CCCC3)nn2-c2ccc(S(N)(=O)=O)cc2F)c1 [Example F-1ak]
IC50 (human CA-IX): 3.83 nM

Compound: CN(Cc1nc(Cc2ccccc2)n(-c2ccc(S(N)(=O)=O)cc2F)n1)C1CCCCC1 [Example F-1aq, 4-(5-benzyl-3-{[cyclohexyl(methyl)amino]methyl}-1H-1,2,4-triazol-1-yl)-3-fluorobenzenesulfonamide]
IC50 (human CA-IX): 9.41 nM

Compound: NS(=O)(=O)c1ccc(-n2nc(CN3CC=CCC3)nc2Cc2cccc(Br)c2)cc1 [Example F-1z, 4-[5-(3-bromobenzyl)-3-(3,6-dihydropyridin-1(2H)-ylmethyl)-1H-1,2,4-triazol-1-yl]benzenesulfonamide]
IC50 (human CA-IX): 7.99 nM

Compound: CCCCN(C)Cc1nc(Cc2ccccc2)n(-c2ccc(S(N)(=O)=O)cc2F)n1 [Example G-1b, 4-(5-benzyl-3-{[butyl(methyl)amino]methyl}-1H-1,2,4-triazol-1-yl)-3-fluorobenzenesulfonamide]
IC50 (human CA-IX): 9.01 nM

Compound: Cc1nc(C(=O)O)nn1-c1ncc(S(N)(=O)=O)cn1 [Example I-5b, 1-[5-(aminosulfonyl)pyrimidin-2-yl]-5-methyl-1H-1,2,4-triazole-3-carboxylic acid]
IC50 (human CA-IV; read-out: IC50_CAIV): > 1000 nM
IC50 (human CA-II [1]; read-out: IC50—CAII): 57.9 nM
inhibition at 1 µM (human CA-XII): 46%
IC50 (human CA-XII): > 1000 nM

Compound: CCOC(=O)c1nc(Cc2ccccc2)n(-c2ccc(S(N)(=O)=O)cc2)n1 [a-4, Ethyl 1-[4-(Aminosulfonyl)phenyl]-5-benzyl-1H-1,2,4-triazole-3-carboxylate]
inhibition at 1 µM (human CA-XII): 95%
IC50 (human CA-XII): 73.8 nM

Compound: NS(=O)(=O)c1ccc(-n2nc(C(=O)O)nc2Cc2ccccc2)cc1 [a-5, 1-[4-(Aminosulfonyl)phenyl]-5-benzyl-1H-1,2,4-triazole-3-carboxylic acid]
inhibition at 1 µM (human CA-XII): 99%
IC50 (human CA-XII): 25.8 nM

More lines, now with the values ahead:

IC50 (human CA-IX): 39.3 nM
Compound: CN(CCc1ccccc1)Cc1cn(Cc2ccccc2F)c(-c2ccc(S(N)(=O)=O)cc2)n1 [CCC-1a, 4-(1-(2-fluorobenzyl)-4-{[methyl(2-phenylethyl)amino]methyl}-1H-imidazol-2-yl)benzenesulfonamide]

inhibition at 1 µM (human CA-XII): 31%
IC50 (human CA-XII): > 1000 nM
Compound: CCOC(=O)c1nn(-c2ccc(S(N)(=O)=O)cc2)c2c1CNCC2 [EE-1g, ethyl 1-[4-(aminosulfonyl)phenyl]-4,5,6,7-tetrahydro-1H-pyrazolo[4,3-c]pyridine-3-carboxylate]

inhibition at 0.2 µM (human CA-IV; CA-IV Min dose 200 nM): 65.2%
IC50 (human CA-IV; read-out: CA-IV IC50): 355 nM
inhibition at 0.1 µM (human CA-II [1]): 100%
Kd (human CA-II [2]): 0.805 nM
Compound: CN(CC1CC1)C(=O)c1nc(Cc2ccccc2)n(-c2ccc(S(N)(=O)=O)cc2)n1 [Example R-20, 1-[4-(aminosulfonyl)phenyl]-5-benzyl-N-(cyclopropylmethyl)-N-methyl-1H-124-triazole-3-carboxamide]

inhibition at 0.2 µM (human CA-IV; CA-IV Min dose 200 nM): 53.6%
IC50 (human CA-IV; read-out: CA-IV IC50): 361 nM
inhibition at 0.1 µM (human CA-II [1]): 100%
Kd (human CA-II [2]): 0.091 nM
Compound: COc1cccc(CNC(=O)c2nc(Cc3ccccc3)n(-c3ccc(S(N)(=O)=O)cc3)n2)c1 [Example R-22, 1-[4-(aminosulfonyl)phenyl]-5-benzyl-N-(3-methoxybenzyl)-1H-124-triazole-3-carboxamide]

inhibition at 0.2 µM (human CA-IV; CA-IV Min dose 200 nM): 40.3%
IC50 (human CA-IV; read-out: CA-IV IC50): 376 nM
inhibition at 0.1 µM (human CA-II [1]): 99%
Kd (human CA-II [2]): 0.294 nM
Compound: CN(C)[C@H]1CCN(C(=O)c2nc(Cc3ccccc3)n(-c3ccc(S(N)(=O)=O)cc3)n2)C1 [Example R-23, 4-(5-benzyl-3-{[(3S)-3-(dimethylamino)pyrrolidin-1-yl]carbonyl}-1H-124-triazol-1-yl)benzenesulfonamide]

IC50 (human CA-IV; read-out: IC50_CAIV): ≥ 5000 nM
inhibition at 1 µM (human CA-XII): 51%
IC50 (human CA-XII): 896 nM
Compound: CCOC(=O)c1cc(C)n(-c2ccc(S(N)(=O)=O)cc2)n1 [GG-1, Ethyl 1-[4-(Aminosulfonyl)phenyl]-5-methyl-1H-pyrazole-3-carboxylate]

IC50 (human CA-IV; read-out: IC50_CAIV): ≥ 5000 nM
inhibition at 1 µM (human CA-XII): 89%
IC50 (human CA-XII): 119 nM
Compound: NS(=O)(=O)c1ccc(-n2nc(CN3CCOCC3)c3c2CCCC3)cc1 [II-1b, 4-[3-(morpholin-4-ylmethyl)-4,5,6,7-tetrahydro-1H-indazol-1-yl]benzenesulfonamide]

inhibition at 0.2 µM (human CA-IV; Min dose 200 nM): 56%
IC50 (human CA-IV; read-out: CA-IV IC50): 130 nM
inhibition at 0.0025 µM (human CA-II [1]): 46%
Kd (human CA-II [2]): 0.608 nM
Compound: Cc1ccc(C)c(Cn2cc(C(F)(F)F)nc2-c2ccc(S(N)(=O)=O)cc2)c1 [JJJ-1, 4-[1-(25-dimethylbenzyl)-4-(trifluoromethyl)-1H-imidazol-2-yl]benzenesulfonamide]

inhibition at 0.2 µM (human CA-IV; Min dose 200 nM): 45%
IC50 (human CA-IV; read-out: CA-IV IC50): 309 nM
inhibition at 0.0025 µM (human CA-II [1]): 37%
Kd (human CA-II [2]): 0.552 nM
Compound: Cc1cc(Cn2cc(C(F)(F)F)nc2-c2ccc(S(N)(=O)=O)cc2)ccc1F [JJJ-2, 4-[1-(4-fluoro-3-methylbenzyl)-4-(trifluoromethyl)-1H-imidazol-2-yl]benzenesulfonamide]

inhibition at 0.2 µM (human CA-IV; Min dose 200 nM): 36%
IC50 (human CA-IV; read-out: CA-IV IC50): 346 nM
inhibition at 0.0025 µM (human CA-II [1]): 47%
Kd (human CA-II [2]): 0.369 nM
Compound: Cc1ccccc1Cn1cc(C(F)(F)F)nc1-c1ccc(S(N)(=O)=O)cc1 [JJJ-3, 4-[1-(2-methylbenzyl)-4-(trifluoromethyl)-1H-imidazol-2-yl]benzenesulfonamide]

inhibition at 0.2 µM (human CA-IV; Min dose 200 nM): 29%
IC50 (human CA-IV; read-out: CA-IV IC50): 440 nM
inhibition at 0.0025 µM (human CA-II [1]): 39%
Kd (human CA-II [2]): 1.39 nM
Compound: NS(=O)(=O)c1ccc(-c2nc(C(F)(F)F)cn2Cc2cccc(OC(F)F)c2)cc1 [JJJ-4, 4-{1-[3-(difluoromethoxy)benzyl]-4-(trifluoromethyl)-1H-imidazol-2-yl]benzenesulfonamide]

IC50 (human CA-IV; read-out: IC50_CAIV): 2390 nM
inhibition at 1 µM (human CA-XII): 96%
IC50 (human CA-XII): 66.5 nM
Compound: Cc1cc(C(=O)N(C)C)nn1-c1ccc(S(N)(=O)=O)cn1 [MM-1b, 1-[5-(aminosulfonyl)pyridin-2-yl]-N,N,5-trimethyl-1H-pyrazole-3-carboxamide]

IC50 (human CA-IV; read-out: IC50_CAIV): 2950 nM
inhibition at 1 µM (human CA-XII): 86%
IC50 (human CA-XII): 166 nM
Compound: Cc1cc(C(=O)N2CCN(C)CC2)nn1-c1ccc(S(N)(=O)=O)cn1 [MM-1c, 6-{5-methyl-3-[(4-methylpiperazin-1-yl)carbonyl]-1H-pyrazol-1-yl}pyridine-3-sulfonamide]
